Values after ≈ are worked out from the molar mass of the structure shown. Where two headings read alike, the source gives them in different places. Non-standard residues stand in square brackets, D forms with d. Residues, ends and D or L forms follow the SMILES beside them. *: point of attachment. Orn(α-tetramethylguanidino) = CN(C)C(=N[C@@H](CCCN)C(=O)*)N(C)C; Ac6c = NC1(C(=O)O)CCCCC1; Orn = NCCC[C@H](N)C(=O)O
Columns and labels:
[1] = test system: C. neoformans KN99α (serotype A, mating type MATα)
[2] = test system: C. neoformans strains 1841, H99, and KN99α; assay: Broth microdilution assay (MIC); assay type: cell-based, Cryptococcus neoformans
[3] = test system: C. neoformans H99 (serotype A)
[4] = test system: C. neoformans 1841 (serotype D); settings: for MIC (mg/L) 1841 24 h / MIC (mg/L) 1841 48 h: 50% SAB in phosphate buffer
[5] = KN99α (serotype A, mating type MATα, 24 h)
[6] = KN99α (serotype A, mating type MATα, 48 h)
[7] = strains 1841, H99, and KN99α, 24 h
[8] = 1841 (serotype D, 24 h, pH 7.5)
[9] = 1841 (serotype D, 48 h, pH 7.5)
[10] = broth microdilution, 30°C, read after 24 h, n = 6
[11] = broth microdilution, 30°C, read after 48 h, n = 6
[12] = broth microdilution, 50% SAB in phosphate buffer, 30°C, read after 24 h, n = 6
[13] = broth microdilution, 50% SAB in phosphate buffer, 30°C, read after 48 h, n = 6
[14] = broth microdilution, 50% SAB in phosphate buffer pH 7.5, 5 × 10^4 CFU/mL, 30°C, read after 24 h, mean of six replicates (n = 6)
[15] = broth microdilution, 50% SAB in phosphate buffer pH 7.5, 5 × 10^4 CFU/mL, 30°C, read after 48 h, n = 6

Molecule	MIC (mg/L) KN99α 24 h [1, 5] [mg/L]	MIC (μmol/L) KN99α 24 h [1, 5] [µmol/L]	MIC (μmol/L) KN99α 48 h [1, 6] [µmol/L]	MIC (μmol/L) H99 24 h ([3]; H99 (serotype A, 24 h)) [µmol/L]	MIC (μmol/L) H99 48 h ([3]; H99 (serotype A, 48 h)) [µmol/L]	MIC (μmol/L) 1841 24 h [4, 8] [µmol/L]	MIC (μmol/L) 1841 48 h [4, 9] [µmol/L]	MIC (mg/L) 1841 24 h [4, 10] [mg/L]	MIC (mg/L) 1841 48 h [4, 11] [mg/L]	MIC (μmol/L) 1841 24 h [4, 14] [µmol/L]	MIC (μmol/L) 1841 48 h [4, 15] [µmol/L]	further results
CC[C@H](C)[C@H](NC(=O)[C@H](Cc1ccc(O)cc1)NC(=O)[C@@H](NC(=O)[C@@H]1CCCN1C(=O)[C@H](CCCNC(=N)N)NC(=O)[C@H](CC(N)=O)NC(=O)[C@H](CC(N)=O)NC(=O)[C@H](CCCN)N=C(N(C)C)N(C)C)C(C)C)C(=O)N1CCC[C@H]1C(=O)N[C@@H](CCCNC(=N)N)C(=O)N1CCC[C@H]1C(=O)N[C@@H](CCCNC(=N)N)C(=O)N1CCC[C@H]1C(=O)N1CCC[C@H]1C(=O)N[C@@H](Cc1c[nH]cn1)C(=O)N1CCC[C@H]1C(=O)N[C@@H](CCCNC(=N)N)C(=O)N[C@@H](CC(C)C)C(=O)O [Api137] ({Orn(α-tetramethylguanidino)}-NNRPVYIPRPRPPHPRL-OH; N-terminus and C-terminus assumed)	32 to 64	14 to 28	28 to 56	14 (≈ 32.1 µg/mL)	28 (≈ 64.2 µg/mL)	14 (≈ 32.1 µg/mL)	28 (≈ 64.2 µg/mL)	32 (≈ 14 µM)	64 (≈ 27.9 µM)	–	–	MIC (mg/L) KN99α 48 h [1, 6]: 64 to 128 mg/L; MIC [2]: 32 to 64 µg/mL; MIC [2, 7]: 14 to 28 µM
CC[C@H](C)[C@H](NC(=O)[C@H](CCCN)NC(=O)[C@@H](NC(=O)[C@@H](N)CCCN)[C@@H](C)CC)C(=O)N[C@@H](CCCN)C(=O)N[C@@H](CCCNC(=N)N)C(=O)N1CCC[C@H]1C(=O)N[C@H](C(=O)N[C@@H](Cc1ccc(O)cc1)C(=O)N[C@@H](CCCN)C(=O)N1CCC[C@H]1C(=O)N[C@@H](CCCNC(=N)N)C(=O)N1CCC[C@H]1C(=O)N[C@@H](CCCNC(=N)N)C(=O)N1CCC[C@H]1C(=O)N1CCC[C@H]1C(=O)N[C@@H](Cc1c[nH]cn1)C(=O)N1CCC[C@H]1C(=O)N[C@@H](CCCNC(=N)N)C(=O)N[C@@H](CCCNC(=N)N)C(=O)O)C(C)C [Api822] (H-[Orn]I[Orn]I[Orn]RPVY[Orn]PRPRPPHPRR-OH)	–	3.2 (≈ 7.88 µg/mL)	3.2 (≈ 7.88 µg/mL)	3.2 (≈ 7.88 µg/mL)	3.2 (≈ 7.88 µg/mL)	3.2 (≈ 7.88 µg/mL)	3.2 (≈ 7.88 µg/mL)	–	–	–	–	MIC [2, 7]: 1.6 to 6.7 µM
CC[C@H](C)[C@H](NC(=O)[C@H](CCCNC(=N)N)NC(=O)[C@H](CC(C)C)NC(=O)[C@@H]1CCCN1C(=O)CN)C(=O)N[C@@H](Cc1ccc(O)cc1)C(=O)N[C@H](C(=O)N1CCC[C@H]1C(=O)N[C@@H](Cc1c[nH]cn1)C(=O)N1CCC[C@H]1C(=O)N1CCC[C@H]1C(=O)N1CCC[C@H]1C(=O)N[C@@H](CCCNC(=N)N)C(=O)N1CCC[C@H]1C(=O)N[C@@H](CC(N)=O)C(=O)N[C@@H](CCC(N)=O)C(=O)N[C@@H](CC(N)=O)C(=O)N[C@@H](CCCNC(=N)N)C(=O)O)C(C)C [Apidaecin 1b scr] (H-GPLRIYVPHPPPRPNQNR-OH)	–	> 61	> 61	> 61	> 61	> 61	> 61	–	–	–	–	–
CC[C@H](C)[C@H](NC(=O)CNC(=O)[C@H](CCC(=O)O)NC(=O)[C@H](CCCCN)NC(=O)[C@H](CC(C)C)NC(=O)[C@H](CCCCN)NC(=O)[C@H](CCCCN)NC(=O)[C@@H](NC(=O)CNC(=O)[C@H](CCC(N)=O)NC(=O)[C@H](CCCCN)NC(=O)[C@@H](NC(=O)[C@H](CCCCN)NC(=O)[C@H](CC(N)=O)NC(=O)[C@H](Cc1ccccc1)NC(=O)[C@H](Cc1ccccc1)NC(=O)[C@H](CCC(N)=O)NC(=O)[C@H](CCCCN)NC(=O)[C@H](CC(C)C)NC(=O)[C@@H](NC(=O)[C@@H]1CCCN1C(=O)[C@H](CCC(N)=O)NC(=O)[C@@H]1CCCN1C(=O)[C@H](CCC(=O)O)NC(=O)[C@@H](N)CCC(N)=O)C(C)C)[C@@H](C)CC)[C@@H](C)CC)C(=O)N[C@@H](CCCCN)C(=O)N[C@@H](CCC(=O)O)C(=O)NCC(=O)NCC(=O)N[C@@H](CCCCN)C(=O)N[C@@H](CCCNC(=N)N)C(=O)N[C@@H](CC(C)C)C(=O)N[C@@H](CC(C)C)C(=O)NCC(=O)O [CRAMP rev] (H-QEPQPVLKQFFNKIKQGIKKLKEGIKEGGKRLLG-OH)	4 to 8	1.0 to 2.1	2.1 (≈ 8.15 µg/mL)	1.0 (≈ 3.88 µg/mL)	2.1 (≈ 8.15 µg/mL)	1.0 (≈ 3.88 µg/mL)	2.1 (≈ 8.15 µg/mL)	–	–	–	–	–
CC(C)C[C@H](NC(=O)[C@@H]1CCCN1C(=O)[C@H](CCCNC(=N)N)NC(=O)[C@@H]1CCCN1C(=O)[C@H](CCCNC(=N)N)NC(=O)[C@@H]1CCCN1C(=O)[C@@H]1CCCN1C(=O)[C@H](CCCNC(=N)N)NC(=O)[C@@H]1CCCN1C(=O)[C@@H](NC(=O)[C@@H](N)CCCNC(=N)N)C(C)C)C(=O)N[C@@H](Cc1ccc(O)cc1)C(=O)N1CCC[C@H]1C(=O)N[C@@H](CCCNC(=N)N)C(=O)N1CCC[C@H]1C(=O)N[C@@H](CCCCN)C(=O)N[C@@H](CC(=O)O)C(=O)N1CCC[C@H]1C(=O)N[C@@H](CCCNC(=N)N)C(=O)NC1(C(N)=O)CCCCC1 [Chex1Arg20 rev] (H-RVPRPPRPRPLYPRPKDPR[Ac6c]-NH2; N-terminus assumed)	–	3.2 (≈ 7.92 µg/mL)	6.5 (≈ 16.1 µg/mL)	3.2 (≈ 7.92 µg/mL)	3.2 to 6.5	3.2 (≈ 7.92 µg/mL)	3.2 (≈ 7.92 µg/mL)	–	–	–	–	MIC (mg/L) H99 48 h ([3]; H99 (serotype A, 48 h)): 8 to 16 mg/L
CC[C@H](C)[C@H](NC(=O)[C@H](Cc1ccc(O)cc1)NC(=O)[C@H](CC(N)=O)NC(=O)[C@@H](N)CCCN)C(=O)N[C@@H](CCCN)C(=O)N[C@@H](CCCNC(=N)N)C(=O)N1CCC[C@H]1C(=O)N1CCC[C@H]1C(=O)N[C@@H](CCCNC(=N)N)C(=O)N1CCC[C@H]1C(=O)N[C@@H](CCCNC(=N)N)C(=O)N1CCC[C@H]1C(=O)N[C@@H](CC(C)C)C(=O)N[C@@H](Cc1ccc(O)cc1)C(=O)N1CCC[C@H]1C(=O)N1CCC[C@H]1C(=O)N[C@@H](CCCCN)C(=O)N[C@@H](CC(=O)O)C(=O)N[C@H](C(N)=O)C(C)C [Onc72 rev] (H-[Orn]NYI[Orn]RPPRPRPLYPPKDV-NH2)	–	28 (≈ 64.6 µg/mL)	56 (≈ 129 µg/mL)	28 (≈ 64.6 µg/mL)	56 (≈ 129 µg/mL)	28 (≈ 64.6 µg/mL)	56 (≈ 129 µg/mL)	–	–	–	–	–
CC[C@H](C)[C@H](NC(=O)[C@H](CCCN)NC(=O)[C@H](CCCNC(=N)N)NC(=O)[C@@H]1CCCN1C(=O)[C@@H]1CCCN1C(=O)[C@H](CCCNC(=N)N)NC(=O)[C@@H]1CCCN1C(=O)[C@H](CCCNC(=N)N)NC(=O)[C@@H]1CCCN1C(=O)[C@H](CC(C)C)NC(=O)[C@H](Cc1ccc(O)cc1)NC(=O)[C@@H]1CCCN1C(=O)[C@@H]1CCCN1C(=O)[C@H](CCCCN)NC(=O)[C@H](CC(=O)O)NC(=O)[C@@H](N)C(C)C)C(=O)N[C@@H](Cc1ccc(O)cc1)C(=O)N[C@@H](CC(N)=O)C(=O)N[C@@H](CCCN)C(N)=O [Onc72] (H-VDKPPYLPRPRPPR[Orn]IYN[Orn]-NH2; N-terminus and C-terminus assumed)	32 to 64	14 to 28	56 (≈ 129 µg/mL)	14 (≈ 32.3 µg/mL)	28 to 56	28 (≈ 64.6 µg/mL)	56 (≈ 129 µg/mL)	64 (≈ 27.8 µM)	128 (≈ 55.5 µM)	–	–	MIC (mg/L) H99 48 h ([3]; H99 (serotype A, 48 h)): 64 to 128 mg/L
gu-LRPHPPRPRPIYVPRNNO-NH2 [Api88 rev]	–	–	–	–	–	–	–	–	–	7.0	7.0	MIC (μmol/L) KN99α 24 h [1, 12]: 7.0 µmol/L; MIC (μmol/L) KN99α 48 h [1, 13]: 14 µmol/L; MIC (μmol/L) H99 24 h [3, 12]: 7.0 µmol/L; MIC (μmol/L) H99 48 h [3, 13]: 14 µmol/L
gu-OIOIORPVYOPRPRPPHPRR-OH [Api813]	–	–	–	–	–	–	–	8	8	3.1	3.1	MIC (mg/L) KN99α 24 h [1, 12]: 4 to 8 mg/L; MIC (mg/L) KN99α 48 h [1, 13]: 8 mg/L; MIC (mg/L) H99 24 h [3, 12]: 4 mg/L; MIC (mg/L) H99 48 h [3, 13]: 4 to 8 mg/L
gu-OPNRYIRPRLPPHPNRPV-NH2 [Api88 scr]	–	–	–	–	–	–	–	16	32 to 64	7.0	14 to 28	MIC (μmol/L) KN99α 24 h [1, 12]: 28 µmol/L; MIC (μmol/L) KN99α 48 h [1, 13]: 56 µmol/L; MIC (μmol/L) H99 24 h [3, 12]: 28 µmol/L; MIC (μmol/L) H99 48 h [3, 13]: 56 µmol/L
